# According to patent US20220028483A1, “SYSTEMS AND METHODS FOR CLASSIFYING TUMORS” (PRESIDENT AND FELLOWS OF HARVARD COLLEGE, priority 2018, published 2022):
# Test system: breast cancer cell lines
# Assay: Drug response (IC50, GDSC data) of breast cancer cell lines classified Signature 3-positive or -negative by SigMA
# Assay type: cell-based
# Details: five Signature 3-positive vs twelve Signature 3-negative breast cancer cell lines; p=0.044, Kolmogorov-Smirnov test
# From the text: To test the hypothesis that the presence of Signature 3 indicates susceptibility to PARP inhibition, the response of diverse cancer cell lines was examed to the two popular PARP inhibitors olaparib and velirapib (Supplementary Methods Section 12). The disclosed SigMA example algorithm was first applied to 700 cell lines from the Cancer Cell Line Encyclopedia (CCLE) project (Basu et al., 2013) to identify those with Signature 3. Mutation calls from a 1651-gene panel and copy number calls from single-nucleotide polymorphism (SNP) arrays were available for each cell line. In applying SigMA, a stringent filter was used to discriminate the cell lines with Signature 3 mutations from those without Signature 3 but with a large number of in vitro culture-associated mutations (Online Methods and Supplementary Methods Section 12). Also, cell lines with MSI signatures were removed to minimize their confounding effect (see Vilar Sanchez et al. (2009), and Supplementary FIG. 6f). […]
# Among 1074 cell lines in total, the mutational spectra of 700 cell lines were analyzed of major tumor types with SigMA, but only 136 of these had drug response data for either olaparib or veliparib. […]
smiles,measurement,value
O=C(c1cc(Cc2n[nH]c(=O)c3ccccc23)ccc1F)N1CCN(C(=O)C2CC2)CC1 [olaparib],fold decrease of IC50 values in Signature 3-positive vs Signature 3-negative cell lines,2.6 fold
